Source: US4731363A, “Thromboxane synthase inhibitors as insulin lowering agents and antiobesity agents” (priority 1986, dated 1988)
“And” between values parts separate entries of the source, which are not always exact repeats. Identical values can stand only once. Counter-ions that a name gives are not always drawn. Like-named read-outs stand apart in the source and are kept apart here.

Legend:
[1] = biological target: T1, thromboxane synthase (Guinea Pig Lung Microsomes) (Cavia porcellus, UniProt H0UT36); assay: biochemical
T1 construct: The lungs were removed, freed of trachea and the majority of blood removed by rinsing the lungs with buffer; from tissue; host or cells: lungs of male guinea pigs (microsomes, 110,000 g pellet)
T1 sequence (H0UT36 entry or part of it): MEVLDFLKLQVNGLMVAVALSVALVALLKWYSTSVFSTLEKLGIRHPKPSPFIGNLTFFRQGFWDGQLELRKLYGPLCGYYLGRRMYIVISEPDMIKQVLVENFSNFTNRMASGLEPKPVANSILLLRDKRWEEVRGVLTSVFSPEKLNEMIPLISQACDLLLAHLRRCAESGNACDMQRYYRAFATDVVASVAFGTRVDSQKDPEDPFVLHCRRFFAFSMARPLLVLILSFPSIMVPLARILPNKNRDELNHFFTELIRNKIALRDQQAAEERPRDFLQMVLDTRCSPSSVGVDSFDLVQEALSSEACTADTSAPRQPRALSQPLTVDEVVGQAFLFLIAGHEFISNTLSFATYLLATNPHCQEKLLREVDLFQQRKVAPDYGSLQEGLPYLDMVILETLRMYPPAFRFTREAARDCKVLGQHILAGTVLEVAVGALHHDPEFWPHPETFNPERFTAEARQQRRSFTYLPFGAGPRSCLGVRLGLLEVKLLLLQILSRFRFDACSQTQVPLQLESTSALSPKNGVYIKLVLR
Protocol: In said assay procedure, microsomes from guinea pig lung or human platelets are added to an endoperoxide intermediate in prostaglandin biosynthesis and the inhibitor in phosphate buffer solution followed by incubation, extraction and determination of the extent of thromboxane synthase inhibition by TLC with radiochromatographic profile analysis. […]
Isolation of Guinea Pig Lung Microsomes
Four male guinea pigs (.congruent.500 g each) were sacrificed by spinal dislocation. The lungs were removed, freed of trachea and the majority of blood removed by rinsing the lungs with buffer (0.1M phosphate pH 7.5) via the pulmonary artery. The lung tissue (18.3 g total wet wt.), was then minced, suspended in three volumes of buffer and homogenized using, initially, a Brinkmann polytron homogenizer and, finally, a glass-teflon tissue grinder. The homogenate was centrifuged at 12,000 g for 1 hr. and the resultant supernatant recentrifuged at 110,000 g for 1 hr. The 110,000 g pellet was taken up in 10 ml of buffer, divided into 5×2 ml aliquots and stored at -70° until use.
(§1) Low specific activity PGH2 (3.3 μCi/μmole) was obtained from Dr. W. E. M. Lands of the University of Michigan. PGH2 of higher specific activity (16.0 μCi/μmole) was purchased from Ran Biochemicals, Tel-Aviv, Israel.
(§2) The inhibitors tested were prepared as solutions (1-10 mg/ml) in 95% ethanol.
(§3) Assay for Thromboxane Synthase
(§4) To a 12×75 mm tube containing [1-^14 C] PGH2 (2 μg, 0.01 μCi or 0.05 μCi) and inhibitor (1 mM final assay concentration, in 10 μl of ethanol) in 225 μl of phosphate buffer (0.1M, pH 7.5), was added to an aliquot of guinea pig lung microsomes (25 μl, containing 400 μg protein) or an aliquot of human platelet microsomes (25 μl, containing .congruent.[…] protein). The solution was incubated in a 22° water bath for 2 min.; ether (1 ml) and citric acid (25 μMoles) were added, and the tube plunged into an acetone-dry ice bath. The ether extract was transferred to a 1.0 ml Reacti-vial, and the volume reduced under nitrogen to .congruent.50 μl.
(§5) The extract was applied to an I.T.L.C., type SG, glass fiber sheet (Gelman Instrument Co., Ann Arbor, Mich.) and developed in isooctane; methyl ethyl ketone: acetic acid (100:19:1 or 100:9:1) (19). The sheets were air dried and scanned using a Berthold LB 2760 Radiochromatographic Scanner. In certain cases, based on the radiochromatographic profile obtained, the sheets were cut, the appropriate regions placed in scintillation vials, 10 ml of LSC cocktail (Yorktown Research, S. Hackensack, NJ) added, and the relative cpm determined.

[2] = biological target: T2, thromboxane synthase (Human Platelet Microsomes) (Homo sapiens, UniProt P24557); assay: Thromboxane synthase inhibition, human platelet microsomes; format: biochemical
T2 construct: Platelets were obtained from 320 ml of whole blood and resuspended in 5.0 ml of Krebs-Hensleit buffer; from tissue; host or cells: human platelets (microsomes, 110,000 g pellet)
T2 sequence (P24557 1-533): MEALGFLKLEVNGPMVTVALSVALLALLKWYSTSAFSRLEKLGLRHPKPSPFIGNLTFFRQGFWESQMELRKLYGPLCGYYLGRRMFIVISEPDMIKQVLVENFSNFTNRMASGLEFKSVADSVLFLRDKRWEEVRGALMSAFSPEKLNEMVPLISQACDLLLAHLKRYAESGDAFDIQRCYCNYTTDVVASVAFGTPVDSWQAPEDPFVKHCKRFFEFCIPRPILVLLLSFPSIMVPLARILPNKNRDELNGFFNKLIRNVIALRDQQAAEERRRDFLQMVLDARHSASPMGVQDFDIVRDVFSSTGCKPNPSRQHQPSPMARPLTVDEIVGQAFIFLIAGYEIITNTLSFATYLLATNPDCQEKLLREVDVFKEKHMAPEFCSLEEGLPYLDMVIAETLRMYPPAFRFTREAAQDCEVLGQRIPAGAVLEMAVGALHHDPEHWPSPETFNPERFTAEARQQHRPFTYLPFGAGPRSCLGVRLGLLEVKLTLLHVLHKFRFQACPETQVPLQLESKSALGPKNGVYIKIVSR
Protocol: In said assay procedure, microsomes from guinea pig lung or human platelets are added to an endoperoxide intermediate in prostaglandin biosynthesis and the inhibitor in phosphate buffer solution followed by incubation, extraction and determination of the extent of thromboxane synthase inhibition by TLC with radiochromatographic profile analysis.
(§6) Determination of Inhibition of Thromboxane Synthase Activity Isolation of Human Platelet Microsomes
Platelets were obtained from 320 ml of whole blood and resuspended in 5.0 ml of Krebs-Hensleit buffer (CA^+2 free). After three consecutive freeze-thawing cycles, homogenization and centrifugation at 12,000 g for 45 min., the 12,000 supernatant was recentrifuged at 110,000 g for 60 min. The resultant pellet was resuspended in phosphate buffer (0.5 ml, 0.1M, pH 7.5) and stored at -70° until use.
as §1, §2, §3, §4, §5

TXA2 Synthase = assay: TXA2 synthase IC50 as listed in Table I (enzyme source not stated); format: biochemical
Protocol: as §6, §3, §4, §5

[3] = test system: isolated perfused rat pancreas; assay: Insulin secretion by isolated perfused rat pancreas; design: key: insulin AUC ratio: 1st glucose pulse / 2nd pulse with compound; details: 10 μM; 16.7 mM glucose; control 1.0 ± 0.04 (n = 5)
Protocol: Determination of Insulin-Secretory Activity in the Isolated Perfused Rat Pancreas
Pancreata were obtained from young adult female Charles River rats weighing from 200-300 g. The animals were anaesthesized with sodium pentobarbitol (45 mg/kg), injected intraperitoneally, and the pancreas with its intact vasculature was removed and connected to an extracorporeal perfusion apparatus.
The basic perfusion solution contained: 133 mM NaCl, 4.4 mM KCl, 2.5 mM MgSO4, 2.4 mM Ca gluconate, 1.5 mM KH2 PO4, 29.4 mM NaHCO3, 4% dextran and 0.2% bovine serum albumin and glucose as discussed below. The perfusion flow rate was kept constant at 4 ml/min. After a 15-20 min equilibration period, the experimental protocol was begun. The pancreatic effluent was collected in either one or four-minute fractions.
The perfusion was run in the following sequence:
30 min 16.7 mM glucose-internal control
30 min 16.7 mM glucose and test compound
5 min 20 mM arginine-to check pancreas viability
Test compounds were dissolved in 90% ethanol to a concentration of 25 mM and then diluted in the perfusion buffer to the desired concentration. The perfusion effluent was collected in one or four min fractions-the samples were checked immediately, aliquoted for submission to radioimmunoassay and stored at -20° C. until the time of assay. The radioimmunoassay of insulin was carried out by a back-titration method using a pure rat insulin standard.
To assess the inhibitory activity of the test compounds, an inhibition index was calculated. The inhibition index is derived by comparing the insulin secretion response from treated versus nontreated pancreas preparations. For each preparation, a ratio of insulin secretion was calculated from the area under the insulin secretion curve of the first pulse of 16.7 mM glucose divided by the area under the curve of the second pulse of 16.7 mM glucose containing compound.

[4] = IC50, enzyme source G = Guinea Pig Lung Microsomes
[5] = enzyme source G = Guinea Pig Lung Microsomes, read-out: IC50
[6] = enzyme source H = Human Platelet Microsomes, read-out: IC50
[7] = IC50, enzyme source H = Human Platelet Microsomes

IC50 [1, 5]	IC50 [2, 6]	Structure (SMILES)	other results
		O=[N+]([O-])c1ccc(-n2ccnc2)c([N+](=O)[O-])c1 [1-[2,4-dinitrophenyl]1H--imidazole]	IC50 [1, 4]: > 100 µM and < 1000 µM
> 1000 µM		Cc1ccc2c(-c3ccccc3)nc(=O)n(C(C)C)c2c1 [7-methyl-1-(1-methylethyl)-4-phenyl-2(1H)-quinazolinone, reference compound]	
	1 to 10 µM	Oc1cccc(-n2ccnc2)c1 [3-(1H--imidazol-1-yl)phenol]	
> 1000 µM		O=[N+]([O-])c1c[nH]cn1 [1H-- 4-nitroimidazole]	
> 100 µM and < 1000 µM		O=C1c2ccccc2S(=O)(=O)c2cc(-c3nnn[nH]3)ccc21 [3-(1H-tetrazol-5-yl)-9H-thioxathen-9-one s.s dioxide, reference compound]	
> 100 µM and < 1000 µM		COc1ccc2c(c1)c(CC(=O)O)c(C)n2C(=O)c1ccc(Cl)cc1 [1-(4-chlorobenzoyl)-5-methoxy-2-methyl-1H--indole-3-acetic acid, reference compound]	
	> 100 µM and < 1000 µM	CC(C)(C(=O)c1cccnc1)c1cccnc1 [2-methyl-1,2-di-3-pyridyl-1-propanone tartrate [1:2], reference compound]	
	> 100 µM and < 1000 µM	N[C@@H]1C(=O)N2C(C(=O)O)=C(CSc3ccncn3)CS[C@H]12 [[6R--(6α,7β)]-2-carboxy-8-oxo-3-[(4-pyrimidinylthio)-methyl]5-thia-1-azabicyclo-[4.2.0]oct-2-en-7-aminum hydroxide inner salt]	
> 1000 µM	> 1000 µM	CC(C)Oc1ccc2oc3ccc(C(=O)O)cc3c(=O)c2c1 [7-(1-methylethoxy)-9-oxo-9H-xanthene-2-carboxylic acid]	
		CCn1ccnc1 [1-ethyl-1H--imidazole]	IC50 [1, 4]: > 1000 µM
	~10 µM	CCOc1ccc(-n2ccnc2)cc1 [1-(4-ethoxyphenyl)-1H--imidazole]	
> 100 µM and < 1000 µM		O=[N+]([O-])c1ccc(-n2ccnc2)cc1 [1-(4-nitrophenyl)-1H--imidazole]	
	~10 µM	CCCCn1ccnc1 [1-butyl-1H--imidazole]	
		Clc1ccccc1C(c1ccccc1)(c1ccccc1)n1ccnc1 [1-[(2-chlorophenyl)diphenylmethyl]-1H--imidazole, reference compound]	IC50 [2, 7]: 10 to 100 µM
	> 100 µM and < 1000 µM	CCOC(=O)C(=O)Cc1ccncn1 [Alpha-oxo-4-pyrimidinepropanoic acid ethyl ester]	
		Nc1cncc(C(=O)O)c1 [5-amino-3-pyridinecarboxylic acid]	IC50 [1, 4]: > 1000 µM
		c1ccc(Cn2ccnc2)cc1 [1-(phenylmethyl)-1H--imidazole]	IC50 [2, 7]: 10 to 100 µM
		O=C1C(CC[S+]([O-])c2ccccc2)C(=O)N(c2ccccc2)N1c1ccccc1 (centres unmarked) [1,2-diphenyl-4-[2-[phenylsulfinyl]ethyl]-3,5-pyrazo-lidinedione, reference compound]	IC50 [1, 4]: ~1000 µM
	~1 µM	Oc1ccc(-n2ccnc2)cc1 [4-(1H--imidazol-1-yl)phenol, 4-(1H-imidazol-1-yl)phenol]	IC50 (TXA2 Synthase): 1 µM; Insulin Secretion Inhibition Index [3]: 2
	~100 µM	O=C(NN=Cc1c(O)ccc2ccccc12)c1cccnc1 [[(2-hydroxy-1-naphthalenyl)methylene]hydrazide 3-pyridinecarboxylic acid]	
	10 to 100 µM	OC[C@H]1O[C@@H](n2ccnc2)[C@H](O)[C@@H](O)[C@@H]1O [1-(beta-D-glucopyranosyl)-1H--imidazole]	
~100 µM		c1ccc(-c2ccncn2)cc1 [4-phenylpyrimidine]	
	~1000 µM	CC(=O)n1ccnc1 [1-acetyl-1H--imidazole]	
> 100 µM and < 1000 µM		COC(=O)C=Cc1c[nH]cn1 [3-(1H--imidazole-4-yl)-2-propenoic acid methyl ester]	
	10 to 100 µM	COc1ccc(-n2ccnc2)cc1 [1-(4-methoxyphenyl)-1H--imidazole]	

Structure (SMILES)	IC50 [1, 5]	IC50 [2, 6]	other results
Cn1ccnc1 [1-methyl-1H--imidazole]	> 1000 µM		
